Experiments:
[1] = tested on: cholesterol absorption (serum 3H-cholesterol); experiment: In Vivo Assay of Hypolipidemic Agents using the Rat Cholesterol Absorption Model; set-up: species or system Sprague-Dawley rats; conditions: peroral
Method in brief: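 Female Sprague-Dawley rats (150–250 g, 4–6 per group) were fasted overnight and dosed orally with compound in olive oil or vehicle. Thirty minutes later they received 3–5 μCi 3H-cholesterol orally in olive oil, and serum radioactivity was measured at 3 h. % inhibition = 100×(1−Ctest/Cctrl) at a fixed dose; ED50 is the dose giving half-maximal effect.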

| Compound | % inhibition at 3 mg/kg ([1]; 3 mg/kg (footnote 2), serum 3H-cholesterol vs vehicle control) | melting point [°C] | inhibition in vivo at 1 mg/kg ([1]; po, 1 mg/kg, serum 3H-cholesterol 3 h after cholesterol dose, vs vehicle control) [%] |
| --- | --- | --- | --- |
| CS(=O)(=O)c1cccc(-c2ccc([C@@H]3[C@@H](CC[C@H](O)c4ccc(F)cc4)C(=O)N3c3ccc(F)cc3)cc2)c1 [Example 10, (3R,4S)-1-(4-fluorophenyl)-3-[(3S)-3-(4-fluorophenyl)-3-hydroxypropyl]-4-[3′-(methylsulfonyl)biphenyl-4-yl]azetidin-2-one] | 54^2% | 104 |  |
| COc1cccc(-c2ccc([C@@H]3[C@@H](CC[C@H](O)c4ccc(F)cc4)C(=O)N3c3ccc(F)cc3)cc2)c1OC [Example 11, (3R,4S)-4-(2′,3′-dimethoxybiphenyl-4-yl)-1-(4-fluorophenyl)-3-[(3S)-3-(4-fluorophenyl)-3-hydroxypropyl]azetidin-2-one] |  | 101 | 28 |

Reference: patent US7320972B2, “4-Biarylyl-1-phenylazetidin-2-ones” (Microbia, Inc., priority 2003, dated 2008)
